Columns and labels:
Assay type in all cases: cell-based
[1] = tested on: GFP expression in HEK 293T GFP cells; assay: FACS analysis of GFP-positive cells, vector-transduced HEK 293T GFP cells with and without Dox; settings: various amounts of vector, Dox 6 μg/ml, 5 days
[2] = tested on: GFP expression in HEK 293T GFP cell clones; assay: GFP fluorescence (FACS, microscopy) in cell clones from transduced HEK 293T GFP cells, Dox-controlled RNAi
human p53 = assay: Western blot analysis of p53 silencing by Dox-regulated RNAi in HEK 293T, MCF-7 and A549 cells; settings: transduced HEK 293T, Dox 6 μg/ml, 5-7 days, densitometric analysis
Method: Cells (1×10^5) were incubated overnight with indicated quantities of vector, expressed as ng of protein p24, and then cultivated in the absence and in the presence of 6 μg/ml Dox. After a 5 day (MCF-7 and A549 cells) and a 7 day cultivation (HEK 293T cells), protein was extracted from the cells and analyzed by immunoblotting.
Inventors constructed a second vector, which contained a shRNA encoding sequence designed to silence expression of human p53 as described (1). […] The expression of p53 was not reduced when non-transduced cells were incubated in the presence of Dox (6 μg/ml).
Cell extracts were prepared in lysis buffer [25 mM Tris-HCl (pH 7.5), 1% Triton X-100, 0.5% sodium deoxycholate, 5 mM EDTA, 150 mM NaCl] containing a cocktail of protease inhibitors (Roche, Meylan, France). The protein samples (30 μg) were separated on SDS-9% polyacrylamide gels and then transferred to Protan nitrocellulose membranes (Schleicher and Shuell, Dassel, Germany) in an electroblotting apparatus, using standard procedures (26). Immunodetection was performed as described in Tejedor-Real et al. (27), using a monoclonal anti-p53 antibody (BD Biosciences, Erembodegem, Belgium), a monoclonal anti-actin antibody (Chemicon, Hampshire, UK) and an anti-mouse Ig-horseradish peroxidase (HRP) conjugate (Amersham Biosciences).

**Q.** Which “reduction of the number of GFP-expressing cells” value [1] does the source give for `C[C@H]1c2cccc(O)c2C(=O)C2=C(O)[C@]3(O)C(=O)C(C(N)=O)=C(O)[C@@H](N(C)C)[C@@H]3[C@@H](O)[C@@H]21` [Dox, Doxycycline] here?
**A.** Its value is “up to 60%”.

**Q.** What about the “MFI (+Dox)” value ([2]; clone C1) of the same compound?
**A.** Its value is 4.

**Q.** And the Regulation factor ([2]; clone C1, MFI (−Dox) over MFI (+Dox))?
**A.** Its Regulation factor is 52.

**Q.** What about the “MFI (+Dox)” value ([2]; clone C9) of the same compound?
**A.** The value was 32.

**Q.** And the “reduction of GFP fluorescence” value ([2]; clone C9, 6 μg/ml Dox, after 5-6 days, FACS)?
**A.** The value was 90%.

**Q.** And the Regulation factor ([2]; clone C9, MFI (−Dox) over MFI (+Dox))?
**A.** Its Regulation factor is 9.7.

**Q.** And the “concentration required to induce a 90% suppression of GFP” value ([2]; clone C9, within 5 days)?
**A.** The value was “about 6 μg/ml”.

**Q.** What about the “MFI (+Dox)” value ([2]; clone D8) of the same compound?
**A.** The value was 9.

**Q.** What about the Regulation factor ([2]; clone D8, MFI (−Dox) over MFI (+Dox)) of the same compound?
**A.** The Regulation factor was 24.

**Q.** And the “MFI (+Dox)” value ([2]; clone H6)?
**A.** The value was 77.

**Q.** And the Regulation factor ([2]; clone H6, MFI (−Dox) over MFI (+Dox))?
**A.** Its Regulation factor is 4.4.

**Q.** And the “inhibition of the expression of p53” value (human p53)?
**A.** The value was “up to 90%”.

Source: patent publication US20080312171A1, “Tetracycline-Dependent Regulation of Rna Interference” (CENTRE NATIONAL DE LA RECHERCHE SCIENTIFIQUE, priority 2005, published 2008)
